This note sets out measurements from patent US20190136321A1, “USE OF TRANSLATIONAL PROFILING TO IDENTIFY TARGET MOLECULES FOR THERAPEUTIC TREATMENT” (The Regents of The University of California, priority 2013, published 2019).

The test system of assay [1] is Normal human lung fibroblasts. The experiment in a line: Procollagen Type 1 C-Peptide (PIP EIA) in TGF-β treated fibroblasts. In kind it is cell-based. The conditions noted are these: 10 ng/ml TGF-β, 24 hours. The method, then:
Normal human lung fibroblasts (Lonza #CC-2512) were cultured in DMEM+10% FBS supplemented with Penicillin, Streptomycin and Glutamax (Invitrogen) at 37° C. in a humidified incubator with 5% CO2. Cell passage numbers 2 through 5 were used for all experiments.
(§1) On Day 0, fibroblasts were seeded and cultured under normal conditions overnight. On Day 1, media was removed, cells were washed with PBS and then incubated for 48 hrs in serum free media (DMEM supplemented with penicillin, streptomycin, and glutamax). On Day 3, media was removed and cells were cultured for 24 hrs with fresh serum free media ±PAMi and ±10 ng/ml TGF-β. After this 24 hour incubation, about 6×10^6 cells/10 cm plate and about 1×10^6 cells/well of a 6-well plate were used for ribosomal profiling and western blot analysis, respectively.
Culture Media was collected, centrifuged to pellet cellular debris, and stored at −80° C. Procollagen Type 1 C-Peptide (PIPC) was quantified using the (PIP) EIA kit (Clontech Cat# MK101) according to manufacturer's instructions.

The test system of assay [2] is Normal human lung fibroblasts. Kind of assay: Ribosomal profiling of TGF-β treated fibroblasts. In kind it is cell-based. The method, then:
as §1
Cells were washed with cold PBS supplemented with cycloheximide and lysed with 1× mammalian lysis buffer for 10 min on ice. Lysates were clarified by centrifugation for 10 min at 14,000 rpm and supernatants were collected. Cell lysates were processed to generate the ribosomal protected fragments and total mRNA according to the instructions included with the ARTseq Ribosome Profiling Kit. Sequencing of total RNA (RNA) and of ribosome-protected fragments of RNA (RPF) was carried out with standard Illumina rna seq methodology.
RNA-seq reads were processed with tools from the FASTX-Toolkit (fastq_quality_trimmer, fastx_clipper and fastx_trimmer). Unprocessed and processed reads were evaluated for a variety of quality measures using FastQC. Processed reads were mapped to the human genome using Tophat. Gene-by-gene assessment of the number of fragments strictly and uniquely mapping to the coding region of each gene was conducted using HTSeq-count, a component of the HTSeq package. Differential analyses of the transforming effect of TGF-β on fibroblasts and effect of PAMi treatment on this transformation were carried out with the software packages DESeq for transcription (RNA counts) and translational rate (RPF counts) and BABEL for translational efficiency based upon ribosomal occupancy as a function of RNA level (RNA and RPF counts). Genes with low counts in either RPF or RNA were excluded from differential analyses. Pathway and network analyses of differential data was conducted using Ingenuity Pathway Analysis (IPA).

Take TGF-β: the “increase in procollagen production” value in assay [1] is recorded as “approximately 7 fold”. In addition, the “genes in the pathway having an increase in translational efficiency” value in assay [2] (fibroblasts treated with TGF-β, 141 pathway genes) is given as 118 of the 141. In addition, in assay [2] (fibroblasts upon TGF-β treatment), the “mean translational efficiency of the 141 pathway-associated genes” value is listed as −1.05 log 2 relative to population mean. Further, in assay [2] (fibroblasts, TGF-β), the “mean increase in translational efficiency, all genes in the pathway (printed: these 12 genes)” value is on record as 0.65 log 2 and the “mean increase in translational efficiency, subset of 12 genes” value was 1.3 log 2.
